Laboratory results taken from ChEMBL document CHEMBL3301361, “Experimental in vitro DMPK and physicochemical data on a set of publicly disclosed compounds”.

Key:
in vitro [1] = details: SD, HW or BN, rat, plasma
in vitro [2] = details: mouse, plasma
in vitro [3] = details: human, plasma
physchem [4] = details: octan-1-ol/water
in vitro [5] = details: hepatocytes
in vitro [6] = details: human, hepatocytes
physchem [7] = test: physchem
in vitro [8] = details: human
in vitro [9] = details: Beagle, dog, plasma

Compound	fraction unbound at 5 h (in vitro [1])	fraction unbound at 5 h (in vitro [2])	fraction unbound at 5 h (in vitro [3]; PPB)	logD (physchem [4]; pH 7.4, LogD7.4)	also measured
CCOc1cc(CN2CCC(NC(=O)c3cncc(C)c3)CC2)cc(OCC)c1-c1ccc(F)cc1	0.0119	0.0139	0.0149	–	–
Cc1ccccc1-n1c(Cn2cnc3c(N)ncnc32)nc2cccc(C)c2c1=O	0.24	0.0801	–	–	logD (physchem [4]; pH 7.4): 2.6; hepatocyte CLint (in vitro [5]): 24 µL/min/1e6 cells; fraction unbound at 5 h (in vitro [3]): 0.0136
CS(=O)(=O)N1CCC(NC(=O)NC23CC4CC(CC(C4)C2)C3)CC1	0.262	0.17	0.289	2.7	–
Cc1ncccc1Oc1ncnc(OC2CCN(C(=O)OC(C)C)CC2)c1C	0.0313	0.0149	0.0079	3.8	–
CN(C)CCC1CCN(c2cc(C(=O)NC[C@H]3CC[C@H](CNC(=O)OCC(C)(C)C)CC3)c3ccccc3n2)CC1	0.0133	0.0039	0.0139	–	–
O=C(Nc1ccc(N2CCNCC2)cc1)c1ccc(-c2ccc(Cl)cc2)o1	0.0055	0.03	0.0268	2.4	hepatocyte CLint (in vitro [6]): < 3 µL/min/1e6 cells
Cc1nccc(-c2ccc(-c3nc4ccncc4c(O)c3C#N)cc2)c1Cl	0.0014	0.0088	0.0014	2	–
CO[C@H]1CC[C@]2(CC1)Cc1ccc(OCC(C)C)cc1C21N=C(C)C(N)=N1 (some centres not stated)	–	0.349	0.201	3.4	hepatocyte CLint (in vitro [6]): 7.24 µL/min/1e6 cells
CO[C@H]1CC[C@]2(CC1)Cc1ccc(-c3cncc(Br)c3)cc1C21N=C(C)C(N)=N1 (some centres not stated)	0.0661	0.0209	0.139	3.4	–
Cc1cccc(-c2ccc(CNC(=O)CCCc3ccc4cccnc4n3)cc2)c1	–	0.0022	–	–	hepatocyte CLint (in vitro [6]): 60.3 µL/min/1e6 cells
FC(F)(F)Oc1ccc(-c2nnc(CCCCc3ccc4cccnc4n3)o2)cc1Cl	–	0.0043	0.0008	–	hepatocyte CLint (in vitro [6]): 24.6 µL/min/1e6 cells
O=C1COc2nccc(-c3ccccc3F)c2CN1Cc1cc(C(F)(F)F)cc(C(F)(F)F)c1	0.0081	0.0095	0.0063	–	–
CCOC(=O)C1=C(C)NC(C)=C(C(C)=O)[C@H]1c1cccc2c(=O)cc(C)oc12	0.0008	0.0016	0.148	2.63	pKa (physchem [7]): 2.22; microsomal CLint (in vitro [8]; liver microsomes): > 150 µL/min/mg; hepatocyte CLint (in vitro [5]): 105 µL/min/1e6 cells; hepatocyte CLint (in vitro [6]): 45.7 µL/min/1e6 cells
CC(C)C[C@H](CO)Nc1nc(S[C@@H](C)c2ccccc2)nc2[nH]c(=O)sc12	–	0.0009	0.001	4.3	fraction unbound at 5 h (in vitro [9]): 0.0019
Cc1cc(N2CCC[C@@H]2C(=O)NCCc2ccc3c(c2)OCO3)nc(-n2ccnc2)n1	0.22	0.154	0.19	2.5	microsomal CLint (in vitro [8]; liver microsomes): > 150 µL/min/mg
COC(=O)N[C@@H](C)C#Cc1cnc(Oc2ccc(OC(C)C)cc2)s1	0.0051	0.0099	0.0034	–	–
CC(C)Oc1cc(Nc2nc(N[C@@H](C)c3ncc(F)cn3)ncc2Cl)n[nH]1	–	0.0736	0.112	–	fraction unbound at 5 h (in vitro [9]): 0.204
O=C(Nc1ccc(CN2CCNCC2)cc1-c1nc2ccccc2[nH]1)c1cnc2ccccc2n1	0.0801	0.0033	0.0009	–	–

Compound	fraction unbound at 5 h (in vitro [1])	fraction unbound at 5 h (in vitro [2])	fraction unbound at 5 h (in vitro [3]; PPB)	logD (physchem [4]; pH 7.4, LogD7.4)	also measured
c1ccc2[nH]c(CCc3nc4ccccc4[nH]3)nc2c1	0.201	0.19	0.16	3.3	–
c1ccc2c(c1)CC(N1CCN(c3cccc4c3OCCO4)CC1)C2	0.0428	0.0661	0.0262	–	–
N#Cc1c(O)c2c(-c3ccc(-c4ccccc4O)cc3)csc2[nH]c1=O	–	0.0063	–	–	microsomal CLint (in vitro [8]; liver microsomes): < 3 µL/min/mg; hepatocyte CLint (in vitro [5]): 52.5 µL/min/1e6 cells
Cc1ncsc1C(=O)N(Cc1cc(=O)[nH]c2c(F)cccc12)c1cccc(Cl)c1	0.0836	0.0736	0.0209	–	–
CC(C)[C@H](C(=O)Nc1nccs1)c1ccc(Cl)cc1	0.0106	0.0111	0.0074	–	hepatocyte CLint (in vitro [6]): 12 µL/min/1e6 cells
CS(=O)(=O)Nc1ccc2[nH]c(Cc3ccc(Oc4ccccc4)cc3)nc2c1	0.0061	0.0059	0.0055	–	–
COc1ccc(Cl)cc1C1(F)C(=O)Nc2cc(C(F)(F)F)ccc21 (configuration not stated)	0.0015	0.0019	0.0017	–	–
CC(C)NC[C@@H](O)COc1cccc2ccccc12 [DEXPROPRANOLOL]	0.179	0.179	–	–	fraction unbound at 5 h (in vitro [3]): 0.176
CCOc1ncc(C)c2c1[C@H](c1ccc(C#N)cc1OC)C(C(N)=O)=C(C)N2 [FINERENONE]	0.0007	0.0007	0.0752	2.51	microsomal CLint (in vitro [8]; microsomes): 97.7 µL/min/mg; hepatocyte CLint (in vitro [5]): 26.9 µL/min/1e6 cells
Cc1cnc(C(=O)c2ncnc3[nH]ccc23)c(NS(=O)(=O)c2ccc(Cl)c(C(F)(F)F)c2)c1 [ILACIRNON]	0.0021	0.0069	0.0009	–	–
O=C1N(c2ccccc2)c2ccccc2C1(Cc1ccncc1)Cc1ccncc1 [LINOPIRDINE]	0.101	0.179	0.004	–	–
CN(C)C(=O)C(CCN1CCC(O)(c2ccc(Cl)cc2)CC1)(c1ccccc1)c1ccccc1 [LOPERAMIDE]	0.0544	0.0358	–	–	logD (physchem [4]; pH 7.4): 3.47; pKa (physchem [7]): 9.14; fraction unbound at 5 h (in vitro [3]): 0.0736
C[C@@]1(c2cc(-c3cncnc3)c(F)cc2F)CCSC(N)=N1 [LY-2811376]	–	0.671	0.46	0.8	fraction unbound at 5 h (in vitro [9]): 0.629
CC(C)(F)C[C@H](N[C@@H](c1ccc(-c2ccc(S(C)(=O)=O)cc2)cc1)C(F)(F)F)C(=O)NC1(C#N)CC1 [ODANACATIB]	0.0366	0.016	0.0606	2.9	–
C[C@@H]1CN(C(=O)[C@@H]2CN(C(C)(C)C)C[C@H]2c2ccc(F)cc2F)C[C@H](C)[C@@]1(O)c1ccccc1 [PF-00446687]	0.19	0.262	0.232	–	hepatocyte CLint (in vitro [6]): 25.1 µL/min/1e6 cells
CC1(CCCc2cc(=O)oc3[nH]c(=O)[nH]c(=O)c23)CC1 [SCH-900271]	0.0149	0.0268	0.0149	–	microsomal CLint (in vitro [8]; liver microsomes): < 3 µL/min/mg; hepatocyte CLint (in vitro [5]): 42.7 µL/min/1e6 cells; hepatocyte CLint (in vitro [6]): < 3 µL/min/1e6 cells
N[C@@H](CC(=O)N1CCn2c(nnc2C(F)(F)F)C1)Cc1cc(F)c(F)cc1F [SITAGLIPTIN]	0.78	0.711	0.768	0.31	–
CCc1c(C(=O)C(N)=O)c2c(OCC(=O)OC)cccc2n1Cc1ccccc1 [VARESPLADIB METHYL]	–	0.232	–	–	hepatocyte CLint (in vitro [6]): 50.1 µL/min/1e6 cells
